The source of these data is patent US20130164814A1, “CONTROL OF ENZYMES IN THE PRODUCTION OF PULP” (KEMIRA OYJ, priority 2010, published 2013).

Each structure is given as a SMILES string.

Data set [1] deals with natural catalase. The data set is described as follows: Peroxide concentration in 3% recovered paper pulp with catalase-containing process water. In kind it is biochemical, bacteria. To be noted: for Measured H2O2: 3% pulp, dose SPC 6.7 kg/t or H2O2 2.0 kg/t, + 7 kg/t H2O2 at 0 min. Here is the method: The effect of SPC product A was studied with a system consisting of recycled fiber pulp and process water with natural catalase. Pulp for the experiment was produced at a recycled fiber pilot plant pulper. Old magazines and old newspapers (OMG/ONP 50/50) were shredded and repulped using process water from a European recycled fiber plant. in the pilot pulper at 19% consistency for 20 minutes with alkaline soap chemistry without peroxide (NaOH 10 kg/t (100%), water glass 15 kg/t (product), soap 5 kg/t). The pulp was stored in freezer until used. Process water from the recycled fiber pilot plant was used in the experiments for diluting the pulp into 3%.
6.7 kg/t of SPC A was added to the pulp and stirred for 5 minutes. After that, 7 kg/t of 100% peroxide was added (at 0 min in FIG. 2 and Table 3) and the concentration of peroxide in the pulp filtrate was measured against time. The SPC addition brought into the system slightly below 2.0 kg peroxide /ton. Therefore, 2.0 kg of peroxide/t representing a reference sample was added to the pulp and stirred for 5 minutes. Again, after that 7 kg/t of 100% peroxide was added (at 0 min in FIG. 2 and Table 3) and the concentration of peroxide was determined by titration against time from the pulp filtrate.

For data set [2], the system named is commercial catalase enzyme. Put plainly: Peroxide decomposition in pure water-peroxide-catalase system (titration against time). The data set is classed as biochemical. The conditions noted are these: 100 mg/L SPC. Here is the method:
(§1) Sodium percarbonate (SPC product E) was tested in a pure distilled water system containing peroxide (210 mg/L), commercial catalase enzyme (1 μL/L) and NaOH to adjust the pH to 9.7 corresponding to the alkaline conditions in a recycled fiber plant. The size of SPC particles comprising NaCO3 coated with Na2SO4 was between 6 and 900 micrometers with maximum 1% >1.6 mm and maximum 2% <0.15 mm. Peroxide decomposition was measured by titration against time. Higher residual peroxide level was obtained with SPC than without any catalase control additive with water-catalase-peroxide system at pH 9.7. Catalase destroyed the 210 mg/I of peroxide very rapidly (FIG. 1, black square). Addition of 100 mg/L of SPC was able to retain the residual peroxide concentration at markedly higher level (triangle). After some initial peroxide degradation, the peroxide level stabilized to ˜80 mg/L. It is known that SPC brings peroxide in the system; this was measured to be 30 mg/L (triangle dotted line). […] Probably catalase enzyme managed to degrade a part of the added peroxide before it was inactivated.

Data set [3] can be described thus: Effect of SPC on the peroxide titration (SPC without catalase and without added H2O2). To be noted: 100 mg/L SPC. The data set is classed as physicochemical. Here is the method: as §1

As to `OO` [H2O2, hydrogen peroxide, reference compound], the “Measured H2O2” value is 8.7 kg/t in data set [1] (0 min), 6.4 kg/t in data set [1] (10 min), 5.8 kg/t in data set [1] (30 min) and 5.2 kg/t in data set [1] (60 min).

With `O=C([O-])[O-].O=C([O-])[O-].OO.OO.OO.[Na+].[Na+].[Na+].[Na+]` [SPC product E, sodium percarbonate], the “Measured benefit: peroxide higher than what only came from SPC” value in data set [2] (water-catalase-peroxide system) is reported as 50 mg/L.

On to `O=C([O-])[O-].O=C([O-])[O-].OO.OO.OO.[Na+].[Na+].[Na+].[Na+]` [SPC, sodium percarbonate], for which the “Stabilized peroxide level after initial degradation” value in data set [2] (210 mg/L peroxide, catalase 1 μL/L, pH 9.7) is given as approximately 80 mg/L. In addition, the “Peroxide decomposition compared with an equal amount of added peroxide” value in data set [1] (3% pulp made of recovered paper) was “Less peroxide decomposed”. The “Measured H2O2” value is reported as 8.7 kg/t in data set [1] (0 min), 7.9 kg/t in data set [1] (10 min), 7.4 kg/t in data set [1] (30 min) and 7.0 kg/t in data set [1] (60 min). Further, the “Peroxide brought into the system by SPC” value in data set [3] came to 30 mg/L.
